In this assay the test system is HCT116 colon cancer cells. As to the kind of experiment: HCT116 cell viability and proliferation assay (MTS). It is filed as cell-based. To be noted: Homo sapiens, HCT-116, 72 h, HCT116, 72 hours, read-out: Cell viability (MTS): HCT116 GI50 Day3. The method, then: HCT116 colon cancer cells were obtained from ATCC (American Type Culture Collection), and maintained in Mc Coy's 5A medium containing 10% FBS, 3 mM glutamine and 1% penicillin/streptomycin. Cells were incubated at 37° C. in a humidified atmosphere containing 5% CO2.
Cell viability was assayed using the MTS technique in 96-well culture plates (CellTiter 96® Aqueous Non-Radioactive Cell Proliferation Assay, Promega) according to the manufacturer's instructions. MTS (3-(4,5-dimethyl-thiazol-2-yl)-5-(3-carboxy-methoxyphenyl)-2-(4-sulfophenyl)-2H-tetra-zolium) is a MTT-derived tetrazolium that is reduced in metabolically active cells into a soluble, cell-permeant formazan. The amount of formazan, detected by its absorbance at 492 nm is proportional to the number of living, metabolically active cells.
10^3 HCT116 cells were seeded per well. 24 hours later, the medium was changed and the cells treated in triplicate with the concentrations of each compound from 100 μM to 50 nM. The compounds were diluted in 100% DMSO, whose final concentration on cells was kept at 0.5%.
Cells were incubated with the compounds for 72 hours, and their viability then assayed by the addition of MTS for 2 hours. Absorbance at 492 nm was measured directly from the 96-well culture plates. Gl50 (Growth Inhibition 50) concentrations for each compound were calculated using a sigmoidal variable slope fit (Prism 4.0, Graphpad Softwares). Values represent mean of three independent experiments.
Take `Cc1cccc(CN2CCC(CNC(=O)c3ccc4c(Cl)c5c(nc4c3)CCCC5)CC2)c1` [Example 1, 9-Chloro-5,6,7,8-tetrahydro-acridine-3-carboxylic acid [1-(3-methyl-benzyl)-piperidin-4-ylmethyl]-amide]: the 50% growth inhibitory concentration (GI50) came to 2 µM.

In the case of `CCN1CCCC1CNC(=O)c1ccc2c(Cl)c3c(nc2c1)CCCC3` (centres unmarked) [Example 2, 9-Chloro-5,6,7,8-tetrahydro-acridine-3-carboxylic acid (1-ethyl-pyrrolidin-2-ylmethyl)-amide], the GI50 was 5 µM.

Consider `CCCN(CCC)CCNC(=O)c1ccc2c(Cl)c3c(nc2c1)CCCC3` [Example 3, 9-Chloro-5,6,7,8-tetrahydro-acridine-3-carboxylic acid (2-dipropylamino-ethyl)-amide], for which the GI50 came to 3.5 µM.

Regarding `CCCCN(CC)CCNC(=O)c1ccc2c(Cl)c3c(nc2c1)CCCC3` [Example 4, 9-Chloro-5,6,7,8-tetrahydro-acridine-3-carboxylic acid [2-(butyl-ethyl-amino)-ethyl]-amide], the GI50 was 4 µM.

As for `CCCN(CCC)CCCNC(=O)c1ccc2c(Cl)c3c(nc2c1)CCCC3` [Example 6, 9-Chloro-5,6,7,8-tetrahydro-acridine-3-carboxylic acid (3-dipropylamino-propyl)-amide], the GI50 came to 3.9 µM.

On to `CCN(CC)CCNC(=O)c1ccc2c(Cl)c3c(nc2c1)CCCC3` [Example 7, 9-Chloro-5,6,7,8-tetrahydro-acridine-3-carboxylic acid (2-diethylamino-ethyl)-amide], for which the GI50 stood at 4.3 µM.

`O=C(NCCCN1CCCC1)c1ccc2c(Cl)c3c(nc2c1)CCCC3` [Example 8, 9-Chloro-5,6,7,8-tetrahydro-acridine-3-carboxylic acid (3-pyrrolidin-1-yl-propyl)-amide]: the 50% growth inhibitory concentration (GI50) turned out to be 5.9 µM.

For `CC1CCCC(C)N1CCCNC(=O)c1ccc2c(Cl)c3c(nc2c1)CCCC3` (centres unmarked) [Example 9, 9-Chloro-5,6,7,8-tetrahydro-acridine-3-carboxylic acid [3-(2,6-dimethyl-piperidin-1-yl)-propyl]-amide], the GI50 is 3.6 µM.

`CCN(CC)CCCNC(=O)c1ccc2c(Cl)c3c(nc2c1)CCCC3` [Example 10, 9-Chloro-5,6,7,8-tetrahydro-acridine-3-carboxylic acid (3-diethylamino-propyl)-amide]: the GI50 was determined as 5 µM.

Consider `CN(C)CCNC(=O)c1ccc2c(Cl)c3c(nc2c1)CCCC3` [Example 11, 9-Chloro-5,6,7,8-tetrahydro-acridine-3-carboxylic acid (2-dimethylamino-ethyl)-amide], for which the GI50 was found to be 7.8 µM.

In the case of `O=C(c1ccc2c(Cl)c3c(nc2c1)CCCC3)N1CCCCCC1` [Example 12, Azepan-1-yl-(9-chloro-5,6,7,8-tetrahydro-acridin-3-yl)-methanone], the GI50 is 20 µM.

As to `CCCN1CCN(CCCNC(=O)c2ccc3c(Cl)c4c(nc3c2)CCCC4)CC1` [Example 13, 9-Chloro-5,6,7,8-tetrahydro-acridine-3-carboxylic acid [3-(4-propyl-piperazin-1-yl)-propyl]-amide], the GI50 was 5.9 µM.

Consider `CN1CCN(CCCNC(=O)c2ccc3c(Cl)c4c(nc3c2)CCCC4)CC1` [Example 15, 9-Chloro-5,6,7,8-tetrahydro-acridine-3-carboxylic acid [3-(4-methyl-piperazin-1-yl)-propyl]-amide], for which the GI50 came out at 7.4 µM.

Consider `O=C(c1ccc2c(Cl)c3c(nc2c1)CCCC3)N1CCC(N2CCCCC2)CC1` [Example 16, [1,4′]Bipiperidinyl-1′-yl-(9-chloro-5,6,7,8-tetrahydro-acridin-3-yl)-methanone], for which the GI50 is 13.5 µM.

The term GI50 denotes the concentration that inhibits growth by half.

The values above are taken from patent publication US9328093B2, “Selective inhibitors of ubiquitin specific protease 7, the pharmaceutical compositions thereof and their therapeutic applications” (HYBRIGENICS SA, priority 2010, dated 2016).
